In ChEMBL document CHEMBL5365500, “Development and Antibacterial Properties of 4-[4-(Anilinomethyl)-3-phenylpyrazol-1-yl]benzoic Acid Derivatives as Fatty Acid Biosynthesis Inhibitors” (J Med Chem, 2023):
Converted amounts (≈) assume the structure as drawn.

Assays:
Assay type in all cases: functional
Details in all cases: time 20-24 hrs
[1] = test system: Staphylococcus aureus; test: Antimicrobial activity against Staphylococcus aureus ATCC 25923 assessed as inhibition of visible growth measured after 20 to 24 hrs incubation by CLSI method
[2] = test system: Staphylococcus aureus; test: Antimicrobial activity against antibiotic-resistant Staphylococcus aureus ATCC BAA-2312 assessed as inhibition of visible growth measured after 20 to 24 hrs incubation by CLSI method
[3] = test system: Staphylococcus aureus; test: Antimicrobial activity against antibiotic-resistant Staphylococcus aureus ATCC 33591 assessed as inhibition of visible growth measured after 20 to 24 hrs incubation by CLSI method
[4] = test system: Staphylococcus aureus; test: Antimicrobial activity against antibiotic-resistant Staphylococcus aureus ATCC 33592 assessed as inhibition of visible growth measured after 20 to 24 hrs incubation by CLSI method
[5] = test system: Staphylococcus aureus; test: Antimicrobial activity against antibiotic-resistant Staphylococcus aureus ATCC 700699 assessed as inhibition of visible growth measured after 20 to 24 hrs incubation by CLSI method
[6] = test system: Staphylococcus epidermidis; test: Antimicrobial activity against antibiotic-resistant Staphylococcus epidermidis ATCC 700296 assessed as inhibition of visible growth measured after 20 to 24 hrs incubation by CLSI method
[7] = test system: Enterococcus faecalis; test: Antimicrobial activity against antibiotic-susceptible Enterococcus faecalis ATCC 29212 assessed as inhibition of visible growth measured after 20 to 24 hrs incubation by CLSI method
[8] = test system: Enterococcus faecalis; test: Antimicrobial activity against antibiotic-resistant Enterococcus faecalis ATCC 51299 assessed as inhibition of visible growth measured after 20 to 24 hrs incubation by CLSI method
[9] = test system: Enterococcus faecium; test: Antimicrobial activity against antibiotic-resistant Enterococcus faecium ATCC 700221 assessed as inhibition of visible growth measured after 20 to 24 hrs incubation by CLSI method
[10] = test system: Bacillus subtilis; test: Antimicrobial activity against antibiotic-resistant Bacillus subtilis ATCC 6623 assessed as inhibition of visible growth measured after 20 to 24 hrs incubation by CLSI method

Compound	MIC [1]	MIC [2]	MIC [3]	MIC [4]	MIC [5]	MIC [6]	MIC [7]	MIC [8]	MIC [9]	MIC [10]
O=C(O)c1ccc(-n2cc(CNc3cc(Br)cc(C(F)(F)F)c3)c(-c3ccc(F)cc3)n2)cc1	2 µg/mL (≈ 3.74 µM)	1 µg/mL (≈ 1.87 µM)	0.5 µg/mL (≈ 0.936 µM)	1 µg/mL (≈ 1.87 µM)	1 µg/mL (≈ 1.87 µM)	4 µg/mL (≈ 7.49 µM)	4 µg/mL (≈ 7.49 µM)	2 µg/mL (≈ 3.74 µM)	2 µg/mL (≈ 3.74 µM)	1 µg/mL (≈ 1.87 µM)
O=C(O)c1ccc(-n2cc(CNc3cc(Cl)cc(Cl)c3)c(-c3ccc(F)c(F)c3)n2)cc1	1 µg/mL (≈ 2.11 µM)	1 µg/mL (≈ 2.11 µM)	0.5 µg/mL (≈ 1.05 µM)	2 µg/mL (≈ 4.22 µM)	2 µg/mL (≈ 4.22 µM)	2 µg/mL (≈ 4.22 µM)	4 µg/mL (≈ 8.43 µM)	8 µg/mL (≈ 16.9 µM)	2 µg/mL (≈ 4.22 µM)	0.5 µg/mL (≈ 1.05 µM)
O=C(O)c1ccc(-n2cc(CNc3cccc(OC(F)(F)F)c3)c(-c3ccc(F)c(F)c3)n2)cc1	4 µg/mL (≈ 8.17 µM)	2 µg/mL (≈ 4.09 µM)	1 µg/mL (≈ 2.04 µM)	4 µg/mL (≈ 8.17 µM)	4 µg/mL (≈ 8.17 µM)	8 µg/mL (≈ 16.3 µM)	8 µg/mL (≈ 16.3 µM)	8 µg/mL (≈ 16.3 µM)	4 µg/mL (≈ 8.17 µM)	1 µg/mL (≈ 2.04 µM)
O=C(O)c1ccc(-n2cc(CNc3ccc(F)c(F)c3)c(-c3cccc(F)c3)n2)cc1	16 µg/mL (≈ 37.8 µM)	16 µg/mL (≈ 37.8 µM)	16 µg/mL (≈ 37.8 µM)	16 µg/mL (≈ 37.8 µM)	16 µg/mL (≈ 37.8 µM)	32 µg/mL (≈ 75.6 µM)	> 32 µg/mL	32 µg/mL (≈ 75.6 µM)	32 µg/mL (≈ 75.6 µM)	8 µg/mL (≈ 18.9 µM)
O=C(O)c1ccc(-n2cc(CNc3cccc(F)c3)c(-c3ccc(F)cc3)n2)cc1	16 µg/mL (≈ 39.5 µM)	32 µg/mL (≈ 78.9 µM)	16 µg/mL (≈ 39.5 µM)	16 µg/mL (≈ 39.5 µM)	16 µg/mL (≈ 39.5 µM)	32 µg/mL (≈ 78.9 µM)	> 32 µg/mL	> 32 µg/mL	> 32 µg/mL	8 µg/mL (≈ 19.7 µM)
O=C(O)c1ccc(-n2cc(CNc3ccc(Br)cc3)c(-c3ccc(F)cc3)n2)cc1	8 µg/mL (≈ 17.2 µM)	16 µg/mL (≈ 34.3 µM)	4 µg/mL (≈ 8.58 µM)	> 32 µg/mL	16 µg/mL (≈ 34.3 µM)	> 32 µg/mL	> 32 µg/mL	> 32 µg/mL	> 32 µg/mL	4 µg/mL (≈ 8.58 µM)
O=C(O)c1ccc(-n2cc(CNc3ccccc3)c(-c3ccc(F)cc3)n2)cc1	32 µg/mL (≈ 82.6 µM)	32 µg/mL (≈ 82.6 µM)	32 µg/mL (≈ 82.6 µM)	32 µg/mL (≈ 82.6 µM)	32 µg/mL (≈ 82.6 µM)	32 µg/mL (≈ 82.6 µM)	> 32 µg/mL	> 32 µg/mL	> 32 µg/mL	16 µg/mL (≈ 41.3 µM)
O=C(O)c1ccc(-n2cc(CNc3cc(F)c(F)c(F)c3)c(-c3cccc(F)c3)n2)cc1	4 µg/mL (≈ 9.06 µM)	4 µg/mL (≈ 9.06 µM)	1 µg/mL (≈ 2.27 µM)	4 µg/mL (≈ 9.06 µM)	8 µg/mL (≈ 18.1 µM)	8 µg/mL (≈ 18.1 µM)	32 µg/mL (≈ 72.5 µM)	32 µg/mL (≈ 72.5 µM)	16 µg/mL (≈ 36.2 µM)	4 µg/mL (≈ 9.06 µM)
O=C(O)c1ccc(-n2cc(CNc3ccc(Br)cc3)c(-c3cccc(F)c3)n2)cc1	4 µg/mL (≈ 8.58 µM)	8 µg/mL (≈ 17.2 µM)	4 µg/mL (≈ 8.58 µM)	16 µg/mL (≈ 34.3 µM)	16 µg/mL (≈ 34.3 µM)	16 µg/mL (≈ 34.3 µM)	32 µg/mL (≈ 68.6 µM)	32 µg/mL (≈ 68.6 µM)	16 µg/mL (≈ 34.3 µM)	4 µg/mL (≈ 8.58 µM)
O=C(O)c1ccc(-n2cc(CNc3ccc(Cl)c(Cl)c3)c(-c3cccc(F)c3)n2)cc1	2 µg/mL (≈ 4.38 µM)	2 µg/mL (≈ 4.38 µM)	1 µg/mL (≈ 2.19 µM)	4 µg/mL (≈ 8.77 µM)	2 µg/mL (≈ 4.38 µM)	4 µg/mL (≈ 8.77 µM)	8 µg/mL (≈ 17.5 µM)	8 µg/mL (≈ 17.5 µM)	4 µg/mL (≈ 8.77 µM)	1 µg/mL (≈ 2.19 µM)
Cc1cc(NCc2cn(-c3ccc(C(=O)O)cc3)nc2-c2ccc(F)cc2)ccc1F	16 µg/mL (≈ 38.1 µM)	16 µg/mL (≈ 38.1 µM)	8 µg/mL (≈ 19.1 µM)	16 µg/mL (≈ 38.1 µM)	8 µg/mL (≈ 19.1 µM)	32 µg/mL (≈ 76.3 µM)	> 32 µg/mL	> 32 µg/mL	> 32 µg/mL	4 µg/mL (≈ 9.54 µM)
O=C(O)c1ccc(-n2cc(CNc3ccc(F)c(Cl)c3)c(-c3cccc(F)c3)n2)cc1	16 µg/mL (≈ 36.4 µM)	8 µg/mL (≈ 18.2 µM)	8 µg/mL (≈ 18.2 µM)	16 µg/mL (≈ 36.4 µM)	16 µg/mL (≈ 36.4 µM)	16 µg/mL (≈ 36.4 µM)	32 µg/mL (≈ 72.8 µM)	32 µg/mL (≈ 72.8 µM)	32 µg/mL (≈ 72.8 µM)	4 µg/mL (≈ 9.09 µM)
O=C(O)c1ccc(-n2cc(CNc3cc(Cl)cc(C(F)(F)F)c3)c(-c3ccc(F)cc3)n2)cc1	4 µg/mL (≈ 8.17 µM)	4 µg/mL (≈ 8.17 µM)	2 µg/mL (≈ 4.08 µM)	4 µg/mL (≈ 8.17 µM)	2 µg/mL (≈ 4.08 µM)	8 µg/mL (≈ 16.3 µM)	16 µg/mL (≈ 32.7 µM)	16 µg/mL (≈ 32.7 µM)	4 µg/mL (≈ 8.17 µM)	4 µg/mL (≈ 8.17 µM)
